Legend:
Assay in all cases: cell-based
hNav1.7 = hNav1.7 (Homo sapiens, UniProt Q15858); assay type: cell-based; details: Table 12; PatchXpress, tonic block; read-out: PX hNav1.7 Tonic IC50
hNav1.5 = hNav1.5 (Homo sapiens, UniProt Q14524); details: for Nav1.5/Nav1.7: ratio of PX tonic IC50 values
hNav1.4 = hNav1.4 (Homo sapiens, UniProt P35499); assay type: cell-based; details: for Nav1.4/Nav1.7: ratio of PX tonic IC50 values
hNav1.4, sequence (P35499 whole entry): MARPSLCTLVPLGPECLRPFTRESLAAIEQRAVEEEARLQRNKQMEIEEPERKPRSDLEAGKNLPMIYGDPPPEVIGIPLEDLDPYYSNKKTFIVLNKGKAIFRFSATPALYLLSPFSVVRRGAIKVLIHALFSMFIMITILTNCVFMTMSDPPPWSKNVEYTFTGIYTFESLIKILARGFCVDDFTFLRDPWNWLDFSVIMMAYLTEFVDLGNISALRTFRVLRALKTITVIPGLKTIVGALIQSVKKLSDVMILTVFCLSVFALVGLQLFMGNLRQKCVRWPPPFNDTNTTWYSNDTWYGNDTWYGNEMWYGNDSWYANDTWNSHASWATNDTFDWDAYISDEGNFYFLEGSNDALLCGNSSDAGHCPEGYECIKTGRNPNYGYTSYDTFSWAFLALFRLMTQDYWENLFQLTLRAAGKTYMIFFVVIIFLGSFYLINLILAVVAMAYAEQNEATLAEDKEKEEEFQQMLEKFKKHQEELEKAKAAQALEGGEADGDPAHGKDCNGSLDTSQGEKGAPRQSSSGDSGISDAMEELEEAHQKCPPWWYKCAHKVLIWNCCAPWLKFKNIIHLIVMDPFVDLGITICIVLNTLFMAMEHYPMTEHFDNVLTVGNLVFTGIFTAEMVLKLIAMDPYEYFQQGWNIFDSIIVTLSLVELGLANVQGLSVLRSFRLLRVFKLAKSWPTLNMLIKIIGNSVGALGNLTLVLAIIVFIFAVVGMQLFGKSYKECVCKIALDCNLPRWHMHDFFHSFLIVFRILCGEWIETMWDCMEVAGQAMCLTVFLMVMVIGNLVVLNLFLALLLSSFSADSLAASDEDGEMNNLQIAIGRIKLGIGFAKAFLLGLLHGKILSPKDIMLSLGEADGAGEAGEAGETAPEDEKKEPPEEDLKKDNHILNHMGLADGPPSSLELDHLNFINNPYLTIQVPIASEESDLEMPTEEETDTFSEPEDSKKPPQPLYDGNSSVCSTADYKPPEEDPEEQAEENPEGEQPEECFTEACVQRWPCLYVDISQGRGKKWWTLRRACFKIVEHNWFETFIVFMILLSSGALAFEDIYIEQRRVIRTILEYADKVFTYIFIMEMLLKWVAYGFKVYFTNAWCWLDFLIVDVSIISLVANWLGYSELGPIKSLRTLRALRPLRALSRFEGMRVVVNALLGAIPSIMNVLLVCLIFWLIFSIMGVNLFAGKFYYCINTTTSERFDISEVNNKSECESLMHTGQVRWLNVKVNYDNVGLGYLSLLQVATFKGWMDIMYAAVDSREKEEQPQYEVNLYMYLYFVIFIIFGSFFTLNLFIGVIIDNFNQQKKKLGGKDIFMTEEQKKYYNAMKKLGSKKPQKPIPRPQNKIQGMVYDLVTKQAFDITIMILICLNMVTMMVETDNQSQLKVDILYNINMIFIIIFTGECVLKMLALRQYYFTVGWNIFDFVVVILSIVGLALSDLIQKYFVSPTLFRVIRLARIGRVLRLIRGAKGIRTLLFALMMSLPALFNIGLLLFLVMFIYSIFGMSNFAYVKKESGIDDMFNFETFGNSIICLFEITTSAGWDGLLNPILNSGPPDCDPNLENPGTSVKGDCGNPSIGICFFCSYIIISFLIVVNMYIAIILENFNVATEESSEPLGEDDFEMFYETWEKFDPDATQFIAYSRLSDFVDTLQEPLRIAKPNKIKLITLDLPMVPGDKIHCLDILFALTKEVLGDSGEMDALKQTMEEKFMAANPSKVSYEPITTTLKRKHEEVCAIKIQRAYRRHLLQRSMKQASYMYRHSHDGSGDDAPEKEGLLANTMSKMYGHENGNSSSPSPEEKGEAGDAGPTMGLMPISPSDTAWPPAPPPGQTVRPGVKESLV

hNav1.5, sequence (Q14524 whole entry): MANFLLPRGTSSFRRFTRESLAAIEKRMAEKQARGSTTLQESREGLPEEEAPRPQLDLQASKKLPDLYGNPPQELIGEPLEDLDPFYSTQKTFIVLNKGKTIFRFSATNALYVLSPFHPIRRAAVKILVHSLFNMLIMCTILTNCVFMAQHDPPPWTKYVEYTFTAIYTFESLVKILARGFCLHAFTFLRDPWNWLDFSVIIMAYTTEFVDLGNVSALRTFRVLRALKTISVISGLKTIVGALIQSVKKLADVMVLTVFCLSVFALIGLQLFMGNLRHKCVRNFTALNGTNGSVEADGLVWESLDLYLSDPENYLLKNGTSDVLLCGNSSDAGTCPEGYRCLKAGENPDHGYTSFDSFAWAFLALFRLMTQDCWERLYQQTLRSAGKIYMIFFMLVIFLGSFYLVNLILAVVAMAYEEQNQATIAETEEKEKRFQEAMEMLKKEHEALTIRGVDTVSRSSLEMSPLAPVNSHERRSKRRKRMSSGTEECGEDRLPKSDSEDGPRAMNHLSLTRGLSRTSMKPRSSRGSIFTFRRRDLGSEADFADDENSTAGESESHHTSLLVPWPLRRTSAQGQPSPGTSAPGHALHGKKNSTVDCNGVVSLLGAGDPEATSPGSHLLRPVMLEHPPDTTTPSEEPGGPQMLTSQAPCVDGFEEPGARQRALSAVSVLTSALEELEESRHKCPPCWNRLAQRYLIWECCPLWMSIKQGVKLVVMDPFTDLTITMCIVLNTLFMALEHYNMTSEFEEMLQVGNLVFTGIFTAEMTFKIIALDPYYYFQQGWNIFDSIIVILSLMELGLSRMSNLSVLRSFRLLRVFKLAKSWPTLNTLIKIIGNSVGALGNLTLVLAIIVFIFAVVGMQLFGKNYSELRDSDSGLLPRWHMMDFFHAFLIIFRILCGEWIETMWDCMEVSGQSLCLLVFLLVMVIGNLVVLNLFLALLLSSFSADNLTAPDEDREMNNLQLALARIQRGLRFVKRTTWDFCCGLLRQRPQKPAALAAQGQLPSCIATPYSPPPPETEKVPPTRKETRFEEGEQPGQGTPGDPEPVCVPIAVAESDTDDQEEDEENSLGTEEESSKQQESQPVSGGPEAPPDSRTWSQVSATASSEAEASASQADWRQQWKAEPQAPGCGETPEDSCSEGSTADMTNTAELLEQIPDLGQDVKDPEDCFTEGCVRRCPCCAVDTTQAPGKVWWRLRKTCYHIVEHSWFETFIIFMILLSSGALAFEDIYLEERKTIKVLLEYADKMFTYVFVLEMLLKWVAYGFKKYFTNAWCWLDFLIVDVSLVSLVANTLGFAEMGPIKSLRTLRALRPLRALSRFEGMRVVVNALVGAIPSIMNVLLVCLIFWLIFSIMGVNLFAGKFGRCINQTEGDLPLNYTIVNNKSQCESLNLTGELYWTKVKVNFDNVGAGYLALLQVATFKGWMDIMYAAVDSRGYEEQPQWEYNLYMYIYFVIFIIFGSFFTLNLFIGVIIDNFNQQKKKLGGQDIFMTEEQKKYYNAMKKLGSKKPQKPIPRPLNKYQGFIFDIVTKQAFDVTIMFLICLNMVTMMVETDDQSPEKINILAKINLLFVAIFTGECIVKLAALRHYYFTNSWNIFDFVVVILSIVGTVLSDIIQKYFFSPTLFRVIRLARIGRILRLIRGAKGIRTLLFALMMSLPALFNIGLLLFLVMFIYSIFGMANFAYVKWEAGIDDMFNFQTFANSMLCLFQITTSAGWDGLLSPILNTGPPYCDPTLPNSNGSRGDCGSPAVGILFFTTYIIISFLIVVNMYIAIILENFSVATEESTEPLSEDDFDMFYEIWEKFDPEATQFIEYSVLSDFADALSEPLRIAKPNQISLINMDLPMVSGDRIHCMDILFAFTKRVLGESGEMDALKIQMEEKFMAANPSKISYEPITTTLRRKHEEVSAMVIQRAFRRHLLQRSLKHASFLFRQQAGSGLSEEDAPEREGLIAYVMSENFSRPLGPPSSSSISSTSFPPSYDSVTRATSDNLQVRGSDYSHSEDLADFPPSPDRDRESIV

SMILES	Nav1.5/Nav1.7 (hNav1.5; Table 12)	Nav1.4/Nav1.7 (hNav1.4; Table 12)	further results
C#CC[C@H](N)C(=O)N[C@@H](Cc1ccc(O)cc1)C(=O)N[C@H]1CSSC[C@@H]2NC(=O)[C@@H]3CSSC[C@@H](C(=O)N[C@@H](CCCNC(=N)N)C(=O)N[C@@H](CCCCN)C(=O)N[C@H](C(=O)N[C@@H](Cc4c[nH]c5ccccc45)C(N)=O)[C@@H](C)CC)NC(=O)[C@H](Cc4c[nH]c5ccccc45)NC(=O)[C@H](CC(C)C)NC(=O)[C@H](CCCCN)NC(=O)[C@H](CSSC[C@H](NC(=O)[C@H]([C@@H](C)O)NC(=O)[C@H](Cc4c[nH]c5ccccc45)NC(=O)[C@H](CCCC)NC(=O)[C@H](Cc4c[nH]c5ccccc45)NC(=O)[C@H](CCCCN)NC(=O)[C@H](CCC(N)=O)NC1=O)C(=O)N[C@@H](CC(=O)O)C(=O)N[C@@H](CO)C(=O)N[C@@H](CCCCN)C(=O)N[C@@H](CCCNC(=N)N)C(=O)N[C@@H](C)C(=O)N3)NC(=O)[C@H](CCCNC(=N)N)NC(=O)[C@H](CC(C)C)NC(=O)CNC(=O)[C@H](CCC(=O)O)NC2=O [compound 296]	479	8	IC50 (hNav1.7): 4.79 nM; IC50 (hNav1.5; Table 12, PatchXpress, tonic block, read-out: PX hNav1.5 Tonic IC50): 2290 nM; IC50 (hNav1.4; Table 12, PatchXpress, tonic block, read-out: PX hNav1.4 Tonic IC50): 37 nM
C#CC[C@@H]1NC(=O)[C@H](CC(=O)O)NC(=O)[C@@H]2CSSC[C@@H]3NC(=O)[C@H](CCC(=O)O)NC(=O)[C@H](CC(C)C)NC(=O)CNC(=O)[C@H](CCC(=O)O)NC(=O)[C@H](CSSC[C@H](NC(=O)[C@@H](N)Cc4ccc(O)cc4)C(=O)N[C@@H](CCC(N)=O)C(=O)N[C@@H](CCCCN)C(=O)N[C@@H](Cc4c[nH]c5ccccc45)C(=O)N[C@@H](CCCC)C(=O)N[C@@H](Cc4c[nH]c5ccccc45)C(=O)N[C@@H]([C@@H](C)O)C(=O)N2)NC(=O)[C@H](CSSC[C@@H](C(=O)N[C@@H](CCCNC(=N)N)C(=O)N[C@@H](CCCCN)C(=O)N[C@H](C(=O)N[C@H](C(N)=O)[C@@H](C)CC)[C@@H](C)CC)NC(=O)[C@H](Cc2c[nH]c4ccccc24)NC(=O)[C@H](CC(C)C)NC(=O)[C@H](CCCCN)NC3=O)NC(=O)[C@H](C)NC(=O)[C@H](CCCNC(=N)N)NC(=O)[C@H](CCCCN)NC1=O [compound 344]	193	230	–
C#CC[C@@H]1NC(=O)[C@H](CCCNC(=N)N)NC(=O)[C@H](CCCCN)NC(=O)[C@H](CO)NC(=O)[C@H](CC(=O)O)NC(=O)[C@@H]2CSSC[C@@H]3NC(=O)[C@H](CCC(=O)O)NC(=O)[C@H](CC(C)C)NC(=O)CNC(=O)[C@H](CCC(=O)O)NC(=O)[C@H](CSSC[C@H](NC(=O)[C@@H](N)Cc4ccc(O)cc4)C(=O)N[C@@H](CCC(N)=O)C(=O)N[C@@H](CCCCN)C(=O)N[C@@H](Cc4c[nH]c5ccccc45)C(=O)N[C@@H](CCCC)C(=O)N[C@@H](Cc4c[nH]c5ccccc45)C(=O)N[C@@H]([C@@H](C)O)C(=O)N2)NC(=O)[C@H](CSSC[C@@H](C(=O)N[C@@H](CCCNC(=N)N)C(=O)N[C@@H](CCCCN)C(=O)N[C@H](C(=O)N[C@H](C(N)=O)[C@@H](C)CC)[C@@H](C)CC)NC(=O)[C@H](Cc2c[nH]c4ccccc24)NC(=O)[C@H](CC(C)C)NC(=O)[C@H](CCCCN)NC3=O)NC1=O [compound 345]	638	232	–
C#CC[C@@H]1NC(=O)[C@@H]2CSSC[C@H](NC(=O)[C@@H](N)Cc3ccc(O)cc3)C(=O)N[C@@H](CCC(N)=O)C(=O)N[C@@H](CCCCN)C(=O)N[C@@H](Cc3c[nH]c4ccccc34)C(=O)N[C@@H](CCCC)C(=O)N[C@@H](Cc3c[nH]c4ccccc34)C(=O)N[C@@H]([C@@H](C)O)C(=O)N[C@H]3CSSC[C@H](NC(=O)[C@H](CCC(=O)O)NC(=O)[C@H](CC(C)C)NC(=O)CNC1=O)C(=O)N[C@@H](CCCCN)C(=O)N[C@@H](CC(C)C)C(=O)N[C@@H](Cc1c[nH]c4ccccc14)C(=O)N[C@H](C(=O)N[C@@H](CCCNC(=N)N)C(=O)N[C@@H](CCCCN)C(=O)N[C@H](C(=O)N[C@H](C(N)=O)[C@@H](C)CC)[C@@H](C)CC)CSSC[C@H](NC(=O)[C@H](C)NC(=O)[C@H](CCCNC(=N)N)NC(=O)[C@H](CCCCN)NC(=O)[C@H](CO)NC(=O)[C@H](CC(=O)O)NC3=O)C(=O)N2 [compound 346]	102	29	–
C#CC[C@H](N)C(=O)NCCOCCOCCOCCOCCC(=O)NCCCC[C@@H]1NC(=O)[C@H](CCCNC(=N)N)NC(=O)[C@H](CCCCN)NC(=O)[C@H](CO)NC(=O)[C@H](CC(=O)O)NC(=O)[C@@H]2CSSC[C@@H]3NC(=O)[C@H](CCCNC(=N)N)NC(=O)[C@H](CC(C)C)NC(=O)CNC(=O)[C@H](CCC(=O)O)NC(=O)[C@H](CSSC[C@H](NC(=O)[C@H](Cc4ccc(O)cc4)NC(=O)[C@@H](N)CC#N)C(=O)N[C@@H](CCC(N)=O)C(=O)N[C@@H](CCCCN)C(=O)N[C@@H](Cc4c[nH]c5ccccc45)C(=O)N[C@@H](CCCC)C(=O)N[C@@H](Cc4c[nH]c5ccccc45)C(=O)N[C@@H]([C@@H](C)O)C(=O)N2)NC(=O)[C@H](CSSC[C@@H](C(=O)N[C@@H](CCCNC(=N)N)C(=O)N[C@@H](CCCCN)C(=O)N[C@H](C(=O)N[C@H](C(N)=O)[C@@H](C)CC)[C@@H](C)CC)NC(=O)[C@H](Cc2c[nH]c4ccccc24)NC(=O)[C@H](CC(C)C)NC(=O)[C@H](CCCCN)NC3=O)NC1=O [compound 380]	0	0	IC50 (hNav1.7): 0.845 nM
C#CC[C@H](N)C(=O)NCCOCCOCCOCCOCCC(=O)NCCCC[C@@H]1NC(=O)[C@@H]2CSSC[C@H](NC(=O)[C@H](Cc3ccc(O)cc3)NC(=O)[C@@H](N)CC#N)C(=O)N[C@@H](CCC(N)=O)C(=O)N[C@@H](CCCCN)C(=O)N[C@@H](Cc3c[nH]c4ccccc34)C(=O)N[C@@H](CCCC)C(=O)N[C@@H](Cc3c[nH]c4ccccc34)C(=O)N[C@@H]([C@@H](C)O)C(=O)N[C@H]3CSSC[C@H](NC(=O)[C@H](CCCNC(=N)N)NC(=O)[C@H](CC(C)C)NC(=O)CNC1=O)C(=O)N[C@@H](CCCCN)C(=O)N[C@@H](CC(C)C)C(=O)N[C@@H](Cc1c[nH]c4ccccc14)C(=O)N[C@H](C(=O)N[C@@H](CCCNC(=N)N)C(=O)N[C@@H](CCCCN)C(=O)N[C@H](C(=O)N[C@H](C(N)=O)[C@@H](C)CC)[C@@H](C)CC)CSSC[C@H](NC(=O)[C@H](C)NC(=O)[C@H](CCCNC(=N)N)NC(=O)[C@H](CCCCN)NC(=O)[C@H](CO)NC(=O)[C@H](CC(=O)O)NC3=O)C(=O)N2 [compound 385]	0	0	–
CCCC[C@@H]1NC(=O)[C@H](Cc2c[nH]c3ccccc23)NC(=O)[C@H](CCCCN)NC(=O)[C@H](CCC(N)=O)NC(=O)[C@@H](NC(=O)[C@H](Cc2ccc(O)cc2)NC(=O)[C@@H](N)Cc2cn(CCOCCOCCOCCOCCOCCOCCOCCOCCOCCOCCOCCNC(=O)CSCc3ccccc3)nn2)CSSC[C@@H]2NC(=O)[C@@H]3CSSC[C@@H](C(=O)N[C@@H](CCCNC(=N)N)C(=O)N[C@@H](CCCCN)C(=O)N[C@H](C(=O)N[C@H](C(N)=O)[C@@H](C)CC)[C@@H](C)CC)NC(=O)[C@H](Cc4c[nH]c5ccccc45)NC(=O)[C@H](CC(C)C)NC(=O)[C@H](CCCCN)NC(=O)[C@H](CSSC[C@H](NC(=O)[C@H]([C@@H](C)O)NC(=O)[C@H](Cc4c[nH]c5ccccc45)NC1=O)C(=O)N[C@@H](CC(=O)O)C(=O)N[C@@H](CO)C(=O)N[C@@H](CCCCN)C(=O)N[C@@H](CCCNC(=N)N)C(=O)N[C@@H](C)C(=O)N3)NC(=O)[C@H](CCCNC(=N)N)NC(=O)[C@H](CC(C)C)NC(=O)CNC(=O)[C@H](CCC(=O)O)NC2=O [compound 427]	–	–	Nav1.5/Nav1.7 (hNav1.5; Table 13): 1416; Nav1.4/Nav1.7 (hNav1.4; Table 13): 9
C#CC[C@H](N)C(=O)NCCCC[C@@H]1NC(=O)[C@H](CCCNC(=N)N)NC(=O)[C@H](CCCCN)NC(=O)[C@H](CO)NC(=O)[C@H](CC(=O)O)NC(=O)[C@@H]2CSSC[C@@H]3NC(=O)[C@H](CCCNC(=N)N)NC(=O)[C@H](CC(C)C)NC(=O)CNC(=O)[C@H](CCC(=O)O)NC(=O)[C@H](CSSC[C@H](NC(=O)[C@H](Cc4ccc(O)cc4)NC(=O)[C@@H](N)CC#N)C(=O)N[C@@H](CCC(N)=O)C(=O)N[C@@H](CCCCN)C(=O)N[C@@H](Cc4c[nH]c5ccccc45)C(=O)N[C@@H](CC(C)C)C(=O)N[C@@H](Cc4c[nH]c5ccccc45)C(=O)N[C@@H]([C@@H](C)O)C(=O)N2)NC(=O)[C@H](CSSC[C@@H](C(=O)N[C@@H](CCCNC(=N)N)C(=O)N[C@@H](CCCCN)C(=O)N[C@@H](CCC(=O)O)C(=O)N[C@H](C(N)=O)[C@@H](C)CC)NC(=O)[C@H](Cc2c[nH]c4ccccc24)NC(=O)[C@H](CC(C)C)NC(=O)[C@H](CCCCN)NC3=O)NC1=O [compound 449]	1038	111	–
CCCC[C@@H]1NC(=O)[C@H](Cc2c[nH]c3ccccc23)NC(=O)[C@H](CCCCN)NC(=O)[C@H](CCC(N)=O)NC(=O)[C@@H](NC(=O)[C@H](Cc2ccc(O)cc2)NC(=O)[C@H](CC#N)NC(=O)[C@@H](N)CCCCN)CSSC[C@@H]2NC(=O)[C@@H]3CSSC[C@@H](C(=O)N[C@@H](CCCNC(=N)N)C(=O)N[C@@H](CCCCN)C(=O)N[C@@H](CCC(=O)O)C(=O)N[C@H](C(N)=O)[C@@H](C)CC)NC(=O)[C@H](Cc4c[nH]c5ccccc45)NC(=O)[C@H](CC(C)C)NC(=O)[C@H](CCCCN)NC(=O)[C@H](CSSC[C@H](NC(=O)[C@H]([C@@H](C)O)NC(=O)[C@H](Cc4c[nH]c5ccccc45)NC1=O)C(=O)N[C@@H](CC(=O)O)C(=O)N[C@@H](CO)C(=O)N[C@@H](CCCCN)C(=O)N[C@@H](CCCNC(=N)N)C(=O)N[C@@H](CCCCNC(=O)[C@@H](N)Cc1cn(CCOCCOCCOCCOCCOCCOCCOCCOCCOCCOCCN)nn1)C(=O)N3)NC(=O)[C@H](CCCNC(=N)N)NC(=O)[C@H](CC(C)C)NC(=O)CNC(=O)[C@H](CCC(=O)O)NC2=O [compound 891]	–	–	Nav1.5/Nav1.7 (hNav1.5; Table 13): 655; Nav1.4/Nav1.7 (hNav1.4; Table 13): 66
